Test results: PubChem BioAssay AID328 (DTP/NCI, 2004)
“And” between values parts separate entries of the source, which are not always exact repeats. Equal entries are not always repeated. Toxic doses and inconclusive results are not listed. Rule for the calls: active = survival T/C of 150% or more; inactive = T/C below 125% in these data.

Tested on: BDF1 mice, P388 leukemia ip, median survival T/C
Experiment: NCI In Vivo Anticancer Drug Screen. Data for tumor model P388 Leukemia (intraperitoneal) in B6D2F1 (BDF1) mice
Details: endpoint: median survival time, higher = longer survival
Outline: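 Antitumour effect was judged in vivo: survival in drug-treated mice, normalised to that of vehicle-dosed controls, gives the reported T/C.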

[1] = dose: 50.0 mg/kg/injection, schedule: Q01DX009 (ip), vehicle: saline with Tween-80
[2] = dose: 100.0 mg/kg/injection, schedule: Q01DX009 (ip), vehicle: saline with Tween-80
[3] = dose: 200.0 mg/kg/injection, schedule: Q01DX009 (ip), vehicle: saline with Tween-80
[4] = dose: 6.25 mg/kg/injection, schedule: Q01DX009 (ip), vehicle: saline
[5] = dose: 25.0 mg/kg/injection, schedule: Q01DX009 (ip), vehicle: saline

Measured: T/C

O=Cc1ccc2c(c1)OCCOCCOCCOCCO2
inactive: [1] 104 % of control | [2] 121 % of control | [3] 117 % of control

CCOC(=O)Nc1cc(NC(C)CCCN(CC)CC)c2ncc(-c3ccc(Cl)c(Cl)c3)nc2n1 (stereo not given) (tested in a mixture with another compound)
inactive: [4] 109 % of control | dose: 6.25 mg/kg/injection, schedule: Q04DX003 (ip), vehicle: saline 95 % of control | dose: 12.5 mg/kg/injection, schedule: Q01DX009 (ip), vehicle: saline 100 % of control | dose: 12.5 mg/kg/injection, schedule: Q04DX003 (ip), vehicle: saline 95 % of control | [5] 104 % of control | dose: 25.0 mg/kg/injection, schedule: Q04DX003 (ip), vehicle: saline 104 % of control

O=C1CSC(C2CCCCC2)N1c1nccs1 (stereo not given)
inactive: [1] 110 % of control | [2] 112 % of control | [3] 110 % of control

CC(=O)Nc1onc(C)c1N
inactive: dose: 50.0 mg/kg/injection, schedule: Q01DX009 (ip), vehicle: saline 90 % of control | dose: 100.0 mg/kg/injection, schedule: Q01DX009 (ip), vehicle: saline 100 % of control | dose: 200.0 mg/kg/injection, schedule: Q01DX009 (ip), vehicle: saline 95 % of control

CS(=O)(=O)n1c(CBr)nc2ccccc21
inactive: dose: 25.0 mg/kg/injection, schedule: Q04DX003 (ip), vehicle: saline sonified 109 % of control | dose: 50.0 mg/kg/injection, schedule: Q04DX003 (ip), vehicle: saline sonified 118 % of control | dose: 100.0 mg/kg/injection, schedule: Q04DX003 (ip), vehicle: saline sonified 122 % of control

CN1COC(OC2CSC2)C(C)(C)C1 (stereo not given)
inactive: dose: 100.0 mg/kg/injection, schedule: Q04DX003 (ip), vehicle: saline with Tween-80 117 % of control | dose: 200.0 mg/kg/injection, schedule: Q04DX003 (ip), vehicle: saline with Tween-80 114 % of control | dose: 400.0 mg/kg/injection, schedule: Q04DX003 (ip), vehicle: saline with Tween-80 115 % of control

O=C(O)CNC(=O)COc1ccc(Cl)c(Cl)c1
inactive: [1] 94 % of control | [2] 92 % of control | [3] 124 % of control

COCCc1ccncc1
inactive: [2] 101 % of control | [3] 97 % of control

NC(=O)c1nc(C(F)(F)F)[nH]c1C(N)=O
inactive: dose: 25.0 mg/kg/injection, schedule: Q01DX009 (ip), vehicle: water 107 % of control | dose: 50.0 mg/kg/injection, schedule: Q01DX009 (ip), vehicle: water 105 % of control and 107 % of control | dose: 50.0 mg/kg/injection, schedule: Q04DX003 (ip), vehicle: water 102 % of control | dose: 100.0 mg/kg/injection, schedule: Q01DX009 (ip), vehicle: water 108 % of control and 118 % of control | dose: 100.0 mg/kg/injection, schedule: Q04DX003 (ip), vehicle: water 102 % of control | dose: 200.0 mg/kg/injection, schedule: Q01DX009 (ip), vehicle: water 107 % of control and 118 % of control | dose: 200.0 mg/kg/injection, schedule: Q04DX003 (ip), vehicle: water 109 % of control | dose: 300.0 mg/kg/injection, schedule: Q01DX009 (ip), vehicle: water 96 % of control | dose: 400.0 mg/kg/injection, schedule: Q01DX009 (ip), vehicle: water 118 % of control | dose: 400.0 mg/kg/injection, schedule: Q04DX003 (ip), vehicle: water 102 % of control

CC(=O)Nc1ccc([N+](=O)[O-])c(NC(C)=O)n1
inactive: dose: 50.0 mg/kg/injection, schedule: Q04DX003 (ip), vehicle: Klucel (hydroxypropylcellulose) (HPC) 110 % of control | dose: 100.0 mg/kg/injection, schedule: Q04DX003 (ip), vehicle: Klucel (hydroxypropylcellulose) (HPC) 105 % of control | dose: 200.0 mg/kg/injection, schedule: Q04DX003 (ip), vehicle: Klucel (hydroxypropylcellulose) (HPC) 100 % of control

COc1ccc(Cc2ccc(O)cc2)cc1
inactive: dose: 100.0 mg/kg/injection, schedule: Q04DX003 (ip), vehicle: other 100 % of control | dose: 200.0 mg/kg/injection, schedule: Q04DX003 (ip), vehicle: other 119 % of control | dose: 400.0 mg/kg/injection, schedule: Q04DX003 (ip), vehicle: other 119 % of control

COC1(OC)C2CCC1C(Cl)=C2Cl
inactive: dose: 3.13 mg/kg/injection, schedule: Q01DX009 (ip), vehicle: saline 102 % of control | [4] 100 % of control | [5] 109 % of control
